Reference: patent US20060270591A1, “Androgen receptor coregulators” (priority 2002, published 2006)

Columns and labels:
[1] = biological target: T1, ER (Homo sapiens, UniProt P03372); assay: ER transactivation with ARA70 in DU145 cells (Example 3); format: cell-based; design: expressed in transfected cells; host or cells: DU145
T1 sequence (P03372 1-595): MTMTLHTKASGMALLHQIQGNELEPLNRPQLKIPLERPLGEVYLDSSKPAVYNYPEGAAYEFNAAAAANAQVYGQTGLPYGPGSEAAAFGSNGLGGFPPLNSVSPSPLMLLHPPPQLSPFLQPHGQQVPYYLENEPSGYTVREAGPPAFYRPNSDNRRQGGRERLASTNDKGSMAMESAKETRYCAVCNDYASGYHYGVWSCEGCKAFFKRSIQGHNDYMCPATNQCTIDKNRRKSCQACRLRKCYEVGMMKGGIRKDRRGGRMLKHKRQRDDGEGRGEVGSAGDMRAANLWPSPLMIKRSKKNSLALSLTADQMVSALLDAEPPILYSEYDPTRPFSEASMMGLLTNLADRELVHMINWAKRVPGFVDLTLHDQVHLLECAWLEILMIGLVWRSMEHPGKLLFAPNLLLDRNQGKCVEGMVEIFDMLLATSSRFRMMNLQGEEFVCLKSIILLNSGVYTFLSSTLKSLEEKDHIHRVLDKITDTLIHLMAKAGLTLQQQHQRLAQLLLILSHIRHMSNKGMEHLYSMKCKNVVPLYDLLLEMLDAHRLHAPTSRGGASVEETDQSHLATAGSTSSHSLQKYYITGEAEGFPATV
Procedure: 411. Human prostate cancer DU145 and PC-3 cells were maintained in […] (DMEM) containing penicillin (25 U/ml), streptomycin (25 μg/ml), and 5% fetal calf serum (FCS). Human LNCaP cells were maintained in RPMI containing penicillin (25 U/ml), streptomycin (25 μg/ml), and 10% FCS. Transfections were performed using the calcium phosphate precipitation method, as previously described (Dynlacht et al. (1991) Cell 66, 563-576). Briefly, 4×10^5 cells were plated on 60-mm dishes 24 hours before transfection, and the medium was changed to DMEM with 5% charcoal-dextran stripped FCS (CS-FBS) one hour before transfection. Transfection medium contained a constant amount of reporter plasmid and indicated amounts of pSG5-receptor, ARA70, or pCMX-GAL fusion construct using pSG5 as a carrier to provide equal amounts of transfected DNA. Twenty-four hours after transfection, the medium was changed again, and the cells were treated with DHT or other treatments. After another 24 hours, the cells were harvested for chloramphenicol transferase (CAT) or luciferase assays. At least three independent experiments were carried out in each case. Superfect (Qiagen) was used for transfection in LNCaP cells. The transfection conditions followed the manufacturer's protocol. […]

[2] = tested on: AR; assay: AR transactivation reporter assay (CAT/luciferase) (Example 3); format: cell-based, human
Procedure: 21. […] Further adding GAL-DBD (lane 1 and 2) or GAL-DBD-ARA70N with wild type (lane 3 and 4) or mutant (lane 5-8) FXXLF motifs to the cells. (B) Effect of wild type and mutant FXXLF motifs ARA70N on AR transactivation in COS-1 cells. […] 0.5 ng SV40-Renila Luciferase was used as an internal control. Relative luciferase activity was calculated by dual luciferase system.
411. Human prostate cancer DU145 and PC-3 cells were maintained in Dulbecco's Minimum Essential Medium (DMEM) containing penicillin (25 U/ml), streptomycin (25 μg/ml), and 5% fetal calf serum (FCS). Human LNCaP cells were maintained in RPMI containing penicillin (25 U/ml), streptomycin (25 μg/ml), and 10% FCS. Transfections were performed using the calcium phosphate precipitation method, as previously described (Dynlacht et al. (1991) Cell 66, 563-576). Briefly, 4×10^5 cells were plated on 60-mm dishes 24 hours before transfection, and the medium was changed to DMEM with 5% charcoal-dextran stripped FCS (CS-FBS) one hour before transfection. Transfection medium contained a constant amount of reporter plasmid and indicated amounts of pSG5-receptor, ARA70, or pCMX-GAL fusion construct using pSG5 as a carrier to provide equal amounts of transfected DNA. […] After another 24 hours, the cells were harvested for chloramphenicol transferase (CAT) or luciferase assays. At least three independent experiments were carried out in each case. Superfect (Qiagen) was used for transfection in LNCaP cells. The transfection conditions followed the manufacturer's protocol. Cell extracts were prepared and assayed for CAT or luciferase activity (Promega) and normalized against β-galactosidase or Renilla luciferase activity as indicated. All data were the mean±SD results from three to six independent experiments.
Target sequence in this assay (P10275 whole entry): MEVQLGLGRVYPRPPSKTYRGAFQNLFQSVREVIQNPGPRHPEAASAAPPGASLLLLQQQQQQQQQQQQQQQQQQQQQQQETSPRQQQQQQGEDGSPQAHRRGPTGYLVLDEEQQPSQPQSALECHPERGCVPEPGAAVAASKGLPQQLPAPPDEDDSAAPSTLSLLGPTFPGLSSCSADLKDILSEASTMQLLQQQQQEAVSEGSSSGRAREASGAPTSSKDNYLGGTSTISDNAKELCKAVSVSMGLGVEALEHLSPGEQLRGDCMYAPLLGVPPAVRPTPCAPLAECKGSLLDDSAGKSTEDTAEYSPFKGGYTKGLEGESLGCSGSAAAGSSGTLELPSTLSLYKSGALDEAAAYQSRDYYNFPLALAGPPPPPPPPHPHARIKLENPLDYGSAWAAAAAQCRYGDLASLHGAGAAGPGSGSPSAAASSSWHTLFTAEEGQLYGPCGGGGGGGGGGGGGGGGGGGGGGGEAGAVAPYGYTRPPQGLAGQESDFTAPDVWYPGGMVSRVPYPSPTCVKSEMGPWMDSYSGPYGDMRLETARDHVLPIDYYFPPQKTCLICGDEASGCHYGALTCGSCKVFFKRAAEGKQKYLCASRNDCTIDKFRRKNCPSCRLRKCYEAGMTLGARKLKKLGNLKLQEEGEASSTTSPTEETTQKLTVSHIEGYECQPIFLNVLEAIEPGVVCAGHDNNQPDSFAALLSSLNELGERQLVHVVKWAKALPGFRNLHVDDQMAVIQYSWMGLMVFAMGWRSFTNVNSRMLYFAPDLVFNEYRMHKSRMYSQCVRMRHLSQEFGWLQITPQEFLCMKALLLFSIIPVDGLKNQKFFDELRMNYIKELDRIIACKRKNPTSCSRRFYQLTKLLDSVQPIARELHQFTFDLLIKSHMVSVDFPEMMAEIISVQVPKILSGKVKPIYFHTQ

[3] = tested on: AR; assay: AR transactivation dual-luciferase assay with supervillin (Example 6); format: cell-based, human
Procedure: In AR transactivation activity assays, transfections were performed using SuperFect (Qiagen, Chatsworth, Calif.) following protocols described in manual provided by Qiagen. Briefly, cells were plated on 35 mm dishes and after 24 h were transfected using the SuperFect kit. The total DNA amount was adjusted to 2 μg with pSG5 or pEGFP vectors. The medium was changed to DMEM with 10% CD-FBS 2 h after transfection. After 24 h, the DMEM with 10% CD-FBS was changed again, and the cells were treated with various steroids. Cells were harvested after 24 h for dual-luciferase assay as described in protocol provided by Promega. At least three independent experiments were carried out in each case.
Target sequence in this assay (P10275 with tags, fused parts or gaps DEL79-80/DUP473-473): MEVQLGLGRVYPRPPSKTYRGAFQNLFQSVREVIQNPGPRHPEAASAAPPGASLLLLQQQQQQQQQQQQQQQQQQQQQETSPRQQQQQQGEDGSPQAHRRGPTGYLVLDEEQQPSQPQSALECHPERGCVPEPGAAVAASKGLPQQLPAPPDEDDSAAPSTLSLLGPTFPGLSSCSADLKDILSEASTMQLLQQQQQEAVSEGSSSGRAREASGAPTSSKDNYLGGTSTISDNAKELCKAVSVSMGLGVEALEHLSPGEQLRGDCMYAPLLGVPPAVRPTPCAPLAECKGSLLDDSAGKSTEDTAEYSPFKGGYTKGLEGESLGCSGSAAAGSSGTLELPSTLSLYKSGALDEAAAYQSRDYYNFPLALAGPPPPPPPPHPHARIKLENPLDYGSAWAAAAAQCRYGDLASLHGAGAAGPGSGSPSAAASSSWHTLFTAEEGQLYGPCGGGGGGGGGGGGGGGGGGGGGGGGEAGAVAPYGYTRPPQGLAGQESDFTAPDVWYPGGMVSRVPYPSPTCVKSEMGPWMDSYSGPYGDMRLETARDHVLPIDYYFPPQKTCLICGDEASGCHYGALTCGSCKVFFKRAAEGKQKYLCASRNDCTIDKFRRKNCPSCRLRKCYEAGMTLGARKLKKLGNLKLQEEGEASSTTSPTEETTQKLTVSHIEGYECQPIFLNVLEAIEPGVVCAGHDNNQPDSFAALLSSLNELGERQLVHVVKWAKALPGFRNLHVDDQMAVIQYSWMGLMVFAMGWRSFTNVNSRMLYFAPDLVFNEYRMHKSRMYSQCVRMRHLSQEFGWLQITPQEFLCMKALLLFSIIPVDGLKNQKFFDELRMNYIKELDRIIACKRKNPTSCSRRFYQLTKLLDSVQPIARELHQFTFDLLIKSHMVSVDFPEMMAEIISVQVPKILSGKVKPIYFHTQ

enhancement of ER transactivation [1] | enhancement of AR transactivation ([2]; COS-1 cells) | enhancement of AR transactivation ([2]; CV-1 cells) | enhancement of AR transactivation ([2]; DU145 cells, depending on the ratio of AR to ARA70) | enhancement of AR transactivation ([2]; PC-3 cells) | enhancement of AR transactivation ([3]; C2C12 muscle cells, bSV:AR plasmids 25:1 and 50:1, DHT) | AR transactivation with EGFP-bSV construct ([3]; COS-1 cells, 10 nM DHT, MMTV-Luc) | effect on Adiol induced AR transactivation ([3]; COS-1 cells, 10 nM steroid) | effect on E2- or HF-induced AR transactivation ([3]; COS-1 cells, 10 nM steroid) | effect on T and DHT induced AR transactivation ([3]; COS-1 cells, 10 nM steroid) | Substance
2-3 fold | 8 fold | 8 fold | 8-10 fold | 6 fold | – | – | – | – | – | ARA70: ligand-enhanced AR coregulator, full length ARA70
– | – | – | – | – | 3-8 fold | 132 fold | slightly enhances | marginal effect | significantly enhances | SV: supervillin, 205 kDa actin binding protein; bovine SV (a.a. 1-1792) used in reporter assays
